According to ChEMBL document CHEMBL5537180, “Discovery of Novel Aminobutanoic Acid-Based ASCT2 Inhibitors for the Treatment of Non-Small-Cell Lung Cancer” (J Med Chem, 2024):
Calls of active or inactive are those of the source. No cut-off for these calls is given here.

Tests used:
A549 [1] = assay: Induction of apoptosis in human A549 cells assessed as late apoptotic cells at 5 uM measured after 24 hrs by annexin-V/PI staining based flow cytometry analysis (reference value: 1.34%); format: functional
A549 [2] = assay: Induction of apoptosis in human A549 cells assessed as late apoptotic cells at 10 uM measured after 24 hrs by annexin-V/PI staining based flow cytometry analysis (reference value: 1.34%); format: functional
A549 [3] = assay: Induction of apoptosis in human A549 cells assessed as early apoptotic cells at 10 uM measured after 24 hrs by annexin-V/PI staining based flow cytometry analysis (reference value: 1.56%); format: functional
A549 [4] = assay: Antitumor activity against human A549 cells xenografted in BALB/c nude mouse assessed as tumor growth inhibition at 25 mg/kg, ip measured daily for 3 weeks relative to control; format: functional; conditions: A549, 504 h, read-out: TGI
A549 [5] = assay: Induction of apoptosis in human A549 cells assessed as necrotic cells at 5 uM measured after 24 hrs by annexin-V/PI staining based flow cytometry analysis (reference value: 0.13%); format: functional
[6] = target: T1, Sodium-coupled neutral amino acid symporter 1 (Homo sapiens) (UniProt Q9H2H9); assay: Inhibition of SNAT1 (unknown origin) overexpressed in human A549 cells assessed as reduction in [13C]-Gln uptake preincubated for 5 mins followed by substrate addition and measured after 15 mins; format: cell-based; conditions: time 20.0 min
T1 sequence (whole entry): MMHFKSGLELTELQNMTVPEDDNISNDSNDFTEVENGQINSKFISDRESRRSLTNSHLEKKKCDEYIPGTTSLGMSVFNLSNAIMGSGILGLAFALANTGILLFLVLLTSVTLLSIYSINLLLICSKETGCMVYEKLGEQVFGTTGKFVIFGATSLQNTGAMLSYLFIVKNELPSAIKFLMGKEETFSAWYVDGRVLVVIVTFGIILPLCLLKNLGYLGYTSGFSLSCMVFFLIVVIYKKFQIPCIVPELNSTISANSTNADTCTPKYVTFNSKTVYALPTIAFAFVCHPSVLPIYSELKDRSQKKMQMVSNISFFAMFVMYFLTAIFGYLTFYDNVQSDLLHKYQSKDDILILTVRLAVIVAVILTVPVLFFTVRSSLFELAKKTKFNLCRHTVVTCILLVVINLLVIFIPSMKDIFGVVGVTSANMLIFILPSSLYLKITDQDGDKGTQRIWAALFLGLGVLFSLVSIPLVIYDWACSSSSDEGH

A549 [7] = assay: Induction of apoptosis in human A549 cells assessed as early apoptotic cells at 5 uM measured after 24 hrs by annexin-V/PI staining based flow cytometry analysis (reference value: 1.56%); format: functional
[8] = Bioavailability in Sprague-Dawley rat at 10 mg/kg, ip incubated for 24 hrs by LC-MS/MS analysis; format: ADME, organism-based; conditions: in vivo
A549 [9] = assay: Induction of apoptosis in human A549 cells assessed as viable cells at 10 uM measured after 24 hrs by annexin-V/PI staining based flow cytometry analysis (reference value: 97.0%); format: functional; conditions: read-out: Activity
A549 [10] = assay: Induction of apoptosis in human A549 cells assessed as necrotic cells at 10 uM measured after 24 hrs by annexin-V/PI staining based flow cytometry analysis (reference value: 0.13%); format: functional
A549 [11] = assay: Antitumor activity against human A549 cells xenografted in BALB/c nude mouse assessed as decrease in tumor weight at 25 to 50 mg/kg, ip measured daily for 3 weeks; format: functional, organism-based; conditions: dose 25-50 mg/kg
A549 [12] = assay: Induction of apoptosis in human A549 cells assessed as viable cells at 5 uM measured after 24 hrs by annexin-V/PI staining based flow cytometry analysis (reference value: 97.0%); format: functional; conditions: read-out: Activity

SMILES | Activity (A549 [1]) [%] | Activity (A549 [2]) [%] | Activity (A549 [3]) [%] | inhibition in vivo at 25 mg/kg (A549 [4]) [%] | Activity (A549 [5]) [%] | inhibition [6] | Activity (A549 [7]) [%] | bioavailability [8] [%] | viability at 10 µM (A549 [9]) [%] | Activity (A549 [10]) [%] | Activity (A549 [11]) | viability at 5 µM (A549 [12]) [%]
N[C@@H](CCN(Cc1ccccc1OCC#Cc1ccc(Cl)cc1)Cc1ccccc1OCC#Cc1ccc(Cl)cc1)C(=O)O | 6.44 | 7.29 | 6.93 | 65 | 0.79 | Active | 2.47 | 77 | 84.4 | 1.4 | Active | 90.3
CC(C)(C)c1ccc(OCC#Cc2ccccc2)c(CN(CC[C@H](N)C(=O)O)Cc2cc(C(C)(C)C)ccc2OCC#Cc2ccccc2)c1 | – | – | – | 70 | – | – | – | – | – | – | Active | –
